Key:
[1] = DRUGMATRIX: Calcium Channel Type L, Benzothiazepine radioligand binding (ligand: [3H] Diltiazem); type: cell membranes, Rattus norvegicus, Wistar, Brain, Membrane; conditions: Not Active = under 50% inhibition at 10 µM
[2] = target: T1, Cholecystokinin receptor type A (Homo sapiens, UniProt P32238); type: cell membranes, Membrane; conditions: 1321-n1; note: in other assays of this panel Not Active means under 50% inhibition at 10 µM
T1 sequence (P32238 whole entry): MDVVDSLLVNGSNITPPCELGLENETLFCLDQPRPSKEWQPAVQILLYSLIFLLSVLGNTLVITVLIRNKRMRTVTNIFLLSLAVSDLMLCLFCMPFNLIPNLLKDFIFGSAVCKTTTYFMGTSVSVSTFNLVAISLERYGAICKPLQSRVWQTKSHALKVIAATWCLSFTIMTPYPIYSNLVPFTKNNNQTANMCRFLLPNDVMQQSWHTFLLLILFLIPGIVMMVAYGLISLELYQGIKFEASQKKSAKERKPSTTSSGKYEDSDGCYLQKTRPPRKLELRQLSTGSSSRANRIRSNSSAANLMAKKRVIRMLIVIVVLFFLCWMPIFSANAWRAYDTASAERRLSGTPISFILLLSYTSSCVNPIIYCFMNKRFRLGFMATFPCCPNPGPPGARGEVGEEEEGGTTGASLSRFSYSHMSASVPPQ

[3] = target: 5-hydroxytryptamine receptor 4 (Cavia porcellus, UniProt O70528); type: cell membranes, Dunkin-Hartley, Striatum, Membrane; conditions: for Ki: read-out: Ki; for all read-outs here: in other assays of this panel Not Active means under 50% inhibition at 10 µM
Chain of 5-hydroxytryptamine receptor 4 (O70528 whole entry): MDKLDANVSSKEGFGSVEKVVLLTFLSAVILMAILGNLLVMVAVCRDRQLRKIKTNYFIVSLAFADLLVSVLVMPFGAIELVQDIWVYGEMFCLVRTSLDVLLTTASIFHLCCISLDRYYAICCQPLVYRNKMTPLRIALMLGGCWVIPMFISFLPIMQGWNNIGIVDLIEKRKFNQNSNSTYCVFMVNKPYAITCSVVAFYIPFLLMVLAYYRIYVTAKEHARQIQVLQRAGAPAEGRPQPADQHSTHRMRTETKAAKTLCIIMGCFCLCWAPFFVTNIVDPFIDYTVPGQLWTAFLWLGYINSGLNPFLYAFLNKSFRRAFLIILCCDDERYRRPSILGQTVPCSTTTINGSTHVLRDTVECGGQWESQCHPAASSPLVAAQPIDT

[4] = target: Tyrosine-protein kinase Fyn (Homo sapiens, UniProt P06241); assay: biochemical; type: cell-based, Insect cells;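 note: enzymatic inhibition of Fyn kinase activity measured with Poly(Glu:Tyr) as the phosphorylation substrate; in other assays of this panel Not Active means under 50% inhibition at 10 µM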
Chain of Tyrosine-protein kinase Fyn (P06241 whole entry): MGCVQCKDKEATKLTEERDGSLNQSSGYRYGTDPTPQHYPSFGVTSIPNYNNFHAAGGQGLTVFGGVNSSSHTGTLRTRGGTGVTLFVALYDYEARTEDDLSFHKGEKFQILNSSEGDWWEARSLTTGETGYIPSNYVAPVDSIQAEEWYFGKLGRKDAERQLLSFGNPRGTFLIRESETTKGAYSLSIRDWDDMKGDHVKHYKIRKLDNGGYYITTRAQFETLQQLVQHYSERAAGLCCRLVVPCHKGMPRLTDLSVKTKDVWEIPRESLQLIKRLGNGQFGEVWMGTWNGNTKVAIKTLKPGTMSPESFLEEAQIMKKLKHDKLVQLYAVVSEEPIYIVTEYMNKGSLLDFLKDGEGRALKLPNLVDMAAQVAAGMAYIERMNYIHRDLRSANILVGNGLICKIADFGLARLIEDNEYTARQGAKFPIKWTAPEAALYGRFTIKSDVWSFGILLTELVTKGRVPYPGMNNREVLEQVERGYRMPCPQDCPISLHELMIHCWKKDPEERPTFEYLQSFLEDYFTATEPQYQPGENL

[5] = target: T2, Neuropeptide Y receptor type 2 (Homo sapiens, UniProt P49146); type: cell membranes, Membrane; conditions: kan-ts; note: in other assays of this panel Not Active means under 50% inhibition at 10 µM
T2 sequence (P49146 whole entry): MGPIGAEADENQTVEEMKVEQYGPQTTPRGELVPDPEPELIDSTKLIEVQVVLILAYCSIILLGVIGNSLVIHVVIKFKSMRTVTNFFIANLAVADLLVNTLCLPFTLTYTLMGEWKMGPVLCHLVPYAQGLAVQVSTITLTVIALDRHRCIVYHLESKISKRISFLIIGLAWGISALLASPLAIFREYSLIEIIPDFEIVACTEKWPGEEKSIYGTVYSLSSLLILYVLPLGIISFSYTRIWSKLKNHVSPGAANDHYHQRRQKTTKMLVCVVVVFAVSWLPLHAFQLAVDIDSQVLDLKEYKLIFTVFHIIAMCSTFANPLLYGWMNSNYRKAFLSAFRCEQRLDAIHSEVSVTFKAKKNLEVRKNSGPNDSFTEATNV

[6] = target: Vascular endothelial growth factor receptor 1 (Homo sapiens, UniProt P17948); assay: biochemical; type: cell-based, HUVEC; conditions: huvec; note: in other assays of this panel Not Active means under 50% inhibition at 10 µM
Chain of Vascular endothelial growth factor receptor 1 (P17948 whole entry): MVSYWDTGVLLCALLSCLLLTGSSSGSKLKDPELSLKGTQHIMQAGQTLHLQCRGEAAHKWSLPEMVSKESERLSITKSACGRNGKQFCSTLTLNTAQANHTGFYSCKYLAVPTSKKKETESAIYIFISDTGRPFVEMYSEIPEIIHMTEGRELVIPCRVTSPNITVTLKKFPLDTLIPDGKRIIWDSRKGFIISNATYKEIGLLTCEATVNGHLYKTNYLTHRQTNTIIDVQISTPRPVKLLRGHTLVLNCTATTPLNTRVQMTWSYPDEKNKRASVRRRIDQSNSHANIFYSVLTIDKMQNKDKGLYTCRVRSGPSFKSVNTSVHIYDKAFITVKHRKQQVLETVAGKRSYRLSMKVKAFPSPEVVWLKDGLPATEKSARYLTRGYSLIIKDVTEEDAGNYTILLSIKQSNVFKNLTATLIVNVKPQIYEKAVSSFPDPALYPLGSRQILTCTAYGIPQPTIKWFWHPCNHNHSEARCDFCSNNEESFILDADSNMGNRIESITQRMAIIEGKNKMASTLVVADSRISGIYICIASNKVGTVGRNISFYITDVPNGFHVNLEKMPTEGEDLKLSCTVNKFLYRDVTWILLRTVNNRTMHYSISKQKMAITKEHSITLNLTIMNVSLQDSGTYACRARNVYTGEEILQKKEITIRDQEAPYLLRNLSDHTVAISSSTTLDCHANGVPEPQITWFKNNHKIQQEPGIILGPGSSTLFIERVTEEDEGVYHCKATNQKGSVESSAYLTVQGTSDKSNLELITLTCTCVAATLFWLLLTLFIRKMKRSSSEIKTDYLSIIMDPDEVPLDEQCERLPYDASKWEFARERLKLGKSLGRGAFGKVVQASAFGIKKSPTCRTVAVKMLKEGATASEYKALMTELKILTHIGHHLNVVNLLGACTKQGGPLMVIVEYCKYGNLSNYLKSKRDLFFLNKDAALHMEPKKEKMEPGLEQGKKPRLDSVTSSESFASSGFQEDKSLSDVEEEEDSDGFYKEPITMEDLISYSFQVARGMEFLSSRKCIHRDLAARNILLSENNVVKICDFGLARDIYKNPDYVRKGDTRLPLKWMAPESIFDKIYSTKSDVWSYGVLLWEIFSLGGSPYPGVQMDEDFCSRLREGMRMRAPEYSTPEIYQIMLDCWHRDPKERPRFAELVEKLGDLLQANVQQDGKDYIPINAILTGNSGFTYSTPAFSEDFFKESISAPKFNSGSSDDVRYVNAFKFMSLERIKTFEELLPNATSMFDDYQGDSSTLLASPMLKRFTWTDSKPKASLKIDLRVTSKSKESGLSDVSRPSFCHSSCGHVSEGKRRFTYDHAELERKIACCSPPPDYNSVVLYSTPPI

Structure (SMILES) | IC50 [1] | Ki [1] | IC50 [2] | IC50 [3] | IC50 ([4]; insect cells) | IC50 [5] | IC50 [6] | IC50 ([1]; read-out: IC50) [µM] | Ki ([1]; read-out: Ki) [µM] | IC50 ([3]; read-out: IC50) [µM] | Ki [3] [µM] | IC50 ([4]; read-out: IC50) [µM]
CC[C@H]1OC(=O)[C@H](C)[C@@H](O[C@H]2C[C@@](C)(OC)[C@@H](O)[C@H](C)O2)[C@H](C)[C@@H](O[C@@H]2O[C@H](C)C[C@H](N(C)C)[C@H]2O)[C@](C)(OC)C[C@@H](C)C(=O)[C@H](C)[C@@H](O)[C@]1(C)O [CLARITHROMYCIN] | Not Active | Not Active | Not Active | Not Active | Not Active | Not Active | Not Active |  |  |  |  | 
CCC[C@@H]1C[C@@H](C(=O)N[C@@H]([C@H]2O[C@H](SC)[C@H](O)[C@@H](O)[C@H]2O)[C@H](C)Cl)N(C)C1 [CLINDAMYCIN] | Not Active | Not Active | Not Active | Not Active | Not Active | Not Active | Not Active |  |  |  |  | 
O=C(O)c1cc(=O)c2c(OCC(O)COc3cccc4oc(C(=O)O)cc(=O)c34)cccc2o1 [CROMOLYN] | Not Active | Not Active | Not Active | Not Active | Not Active | Not Active | Not Active |  |  |  |  | 
O=P1(N(CCCl)CCCl)NCCCO1 (stereo not given) [CYCLOPHOSPHAMIDE ANHYDROUS] | Not Active | Not Active | Not Active | Not Active | Not Active | Not Active | Not Active |  |  |  |  | 
CC(=O)O[C@]1(C(C)=O)CC[C@H]2[C@@H]3C=C(Cl)C4=CC(=O)[C@@H]5C[C@@H]5[C@]4(C)[C@H]3CC[C@@]21C [CYPROTERONE ACETATE] | Not Active | Not Active | Not Active | Not Active | Not Active | Not Active | Not Active |  |  |  |  | 
Nc1nc(N)nc(NC2CC2)n1 [CYROMAZINE] | Not Active | Not Active | Not Active | Not Active | Not Active | Not Active | Not Active |  |  |  |  | 
C#C[C@]1(O)CC[C@H]2[C@@H]3CCC4=Cc5oncc5C[C@]4(C)[C@H]3CC[C@@]21C [DANAZOL] |  |  | Not Active | Not Active | Not Active | Not Active | Not Active | 14.6 | 13 |  |  | 
CCN[C@@H](C)Cc1cccc(C(F)(F)F)c1 [DEXFENFLURAMINE] | Not Active | Not Active | Not Active | Not Active | Not Active | Not Active | Not Active |  |  |  |  | 
C[C@H](C(=O)O)c1cccc(C(=O)c2ccccc2)c1 [DEXKETOPROFEN] | Not Active | Not Active | Not Active | Not Active | Not Active | Not Active | Not Active |  |  |  |  | 
CN1C(=O)CN=C(c2ccccc2)c2cc(Cl)ccc21 [DIAZEPAM] | Not Active | Not Active | Not Active | Not Active | Not Active | Not Active | Not Active |  |  |  |  | 
CN1C[C@H](C(=O)N[C@]2(C)O[C@@]3(O)[C@@H]4CCCN4C(=O)[C@H](Cc4ccccc4)N3C2=O)C[C@@H]2c3cccc4[nH]cc(c34)C[C@H]21 [DIHYDROERGOTAMINE] | Not Active | Not Active | Not Active |  | Not Active | Not Active | Not Active |  |  | 0.94 | 0.157 | 
Cc1c(N(C)CS(=O)(=O)[O-])c(=O)n(-c2ccccc2)n1C.[Na+] [DIPYRONE SODIUM] | Not Active | Not Active | Not Active | Not Active | Not Active | Not Active | Not Active |  |  |  |  | 
CC(CCc1ccc(O)cc1)NCCc1ccc(O)c(O)c1 (stereo not given) [DOBUTAMINE] | Not Active | Not Active | Not Active | Not Active |  | Not Active | Not Active |  |  |  |  | 3.98
CCn1cc(C(=O)O)c(=O)c2cc(F)c(N3CCNCC3)nc21 [ENOXACIN] | Not Active | Not Active | Not Active | Not Active | Not Active | Not Active | Not Active |  |  |  |  | 
CCC(=O)O[C@H]1[C@H](O[C@@H]2[C@@H](C)[C@H](O[C@H]3C[C@@](C)(OC)[C@@H](O)[C@H](C)O3)[C@@H](C)C(=O)O[C@H](CC)[C@@](C)(O)[C@H](O)[C@@H](C)C(=O)[C@H](C)C[C@@]2(C)O)O[C@H](C)C[C@@H]1N(C)C [ERYTHROMYCIN PROPIONATE] | Not Active | Not Active | Not Active | Not Active | Not Active | Not Active | Not Active |  |  |  |  | 
C=C(CC)C(=O)c1ccc(OCC(=O)O)c(Cl)c1Cl [ETHACRYNIC ACID] | Not Active | Not Active | Not Active | Not Active | Not Active | Not Active | Not Active |  |  |  |  | 
C#C[C@]1(O)CC[C@H]2[C@@H]3CCc4cc(O)ccc4[C@H]3CC[C@@]21C [ETHINYL ESTRADIOL] |  |  | Not Active |  | Not Active | Not Active | Not Active | 15.4 | 13.7 | 7.95 | 1.33 | 
OCCO [ETHYLENE GLYCOL] | Not Active | Not Active | Not Active | Not Active | Not Active | Not Active | Not Active |  |  |  |  | 
CC(=O)OCC(CCn1cnc2cnc(N)nc21)COC(C)=O [FAMCICLOVIR] | Not Active | Not Active | Not Active | Not Active | Not Active | Not Active | Not Active |  |  |  |  | 
O=C(O)Cc1ccc(-c2ccccc2)cc1 [FELBINAC] | Not Active | Not Active | Not Active | Not Active | Not Active | Not Active | Not Active |  |  |  |  | 
CCOC(=O)C1=C(C)NC(C)=C(C(=O)OC)C1c1cccc(Cl)c1Cl (stereo not given) [FELODIPINE] |  |  | Not Active | Not Active | Not Active | Not Active | Not Active | 0.023 | 0.02 |  |  | 
CC(C(=O)O)c1ccc(-c2ccccc2)c(F)c1 (stereo not given) [FLURBIPROFEN] | Not Active | Not Active | Not Active | Not Active | Not Active | Not Active | Not Active |  |  |  |  | 
Cc1cn[nH]c1 [FOMEPIZOLE] | Not Active | Not Active | Not Active | Not Active | Not Active | Not Active | Not Active |  |  |  |  | 
NC[C@@H]1O[C@H](O[C@H]2[C@@H](O)[C@H](O[C@@H]3[C@@H](O)[C@H](N)C[C@H](N)[C@H]3O[C@H]3O[C@H](CN)[C@@H](O)[C@H](O)[C@H]3N)O[C@@H]2CO)[C@H](N)[C@@H](O)[C@@H]1O [FRAMYCETIN] | Not Active | Not Active | Not Active | Not Active | Not Active | Not Active | Not Active |  |  |  |  | 
C[C@H]([C@](O)(Cn1cncn1)c1ccc(F)cc1F)S(C)(=O)=O [GENACONAZOLE] | Not Active | Not Active | Not Active | Not Active | Not Active | Not Active | Not Active |  |  |  |  | 
Cc1cnc(C(=O)NCCc2ccc(S(=O)(=O)NC(=O)NC3CCCCC3)cc2)cn1 [GLIPIZIDE] | Not Active | Not Active | Not Active | Not Active | Not Active | Not Active | Not Active |  |  |  |  | 
Cc1c(F)c(N2CCNC(C)C2)cc2c1c(=O)c(C(=O)O)cn2C1CC1 (stereo not given) [GREPAFLOXACIN] | Not Active | Not Active | Not Active | Not Active | Not Active | Not Active | Not Active |  |  |  |  | 
COc1ccccc1OCC(O)CO (stereo not given) [GUAIFENESIN] | Not Active | Not Active | Not Active | Not Active | Not Active | Not Active | Not Active |  |  |  |  | 
N=C(N)N/N=C/c1c(Cl)cccc1Cl [GUANABENZ] | Not Active | Not Active | Not Active | Not Active | Not Active | Not Active | Not Active |  |  |  |  | 
